Test results as given in PubChem BioAssay (NCI).
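Results reflect a 48-hour exposure of cells in 96-well plates to compound at five concentrations. At the GI50, growth is halved. TGI is the concentration that stops growth completely.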

Key:
Assay in all cases: NCI tumour cell line growth inhibition, 48 h
786-0 renal = test system: 786-0 renal
MOLT-4 leukemia = test system: MOLT-4 leukemia
NCI-H522 lung = test system: NCI-H522 lung
KM12 colon = test system: KM12 colon
COLO 205 colon = test system: COLO 205 colon
SK-MEL-2 melanoma = test system: SK-MEL-2 melanoma
K-562 leukemia = test system: K-562 leukemia
OVCAR-5 ovarian = test system: OVCAR-5 ovarian
NCI-H226 lung = test system: NCI-H226 lung
HCT-116 colon = test system: HCT-116 colon
HL-60(TB) leukemia = test system: HL-60(TB) leukemia
RXF 393 renal = test system: RXF 393 renal
A549 NSCLC = test system: A549 NSCLC
SW-620 colon = test system: SW-620 colon
DU-145 prostate = test system: DU-145 prostate
MALME-3M melanoma = test system: MALME-3M melanoma
OVCAR-8 ovarian = test system: OVCAR-8 ovarian
UACC-257 melanoma = test system: UACC-257 melanoma
SK-OV-3 ovarian = test system: SK-OV-3 ovarian
SK-MEL-5 melanoma = test system: SK-MEL-5 melanoma
MDA-MB-435 = test system: MDA-MB-435
SNB-75 CNS = test system: SNB-75 CNS
MDA-MB-231 breast = test system: MDA-MB-231 breast
T-47D breast = test system: T-47D breast
RPMI-8226 leukemia = test system: RPMI-8226 leukemia
SF-539 CNS = test system: SF-539 CNS
ACHN renal = test system: ACHN renal
MCF7 breast = test system: MCF7 breast
SF-268 CNS = test system: SF-268 CNS
UACC-62 melanoma = test system: UACC-62 melanoma
OVCAR-3 ovarian = test system: OVCAR-3 ovarian
HOP-92 NSCLC = test system: HOP-92 NSCLC
CAKI-1 renal = test system: CAKI-1 renal
SN12C renal = test system: SN12C renal
PC-3 prostate = test system: PC-3 prostate
NCI-H23 lung = test system: NCI-H23 lung
HOP-62 NSCLC = test system: HOP-62 NSCLC
LOX IMVI melanoma = test system: LOX IMVI melanoma
HT29 colon = test system: HT29 colon
SF-295 CNS = test system: SF-295 CNS
A498 renal = test system: A498 renal
CCRF-CEM leukemia = test system: CCRF-CEM leukemia
SR leukemia = test system: SR leukemia
IGROV1 ovarian = test system: IGROV1 ovarian
NCI-H460 lung = test system: NCI-H460 lung
OVCAR-4 ovarian = test system: OVCAR-4 ovarian
SNB-19 CNS = test system: SNB-19 CNS
NCI/ADR-RES ovarian = test system: NCI/ADR-RES ovarian
SK-MEL-28 melanoma = test system: SK-MEL-28 melanoma
M14 melanoma = test system: M14 melanoma
EKVX NSCLC = test system: EKVX NSCLC
UO-31 renal = test system: UO-31 renal
U251 CNS = test system: U251 CNS

Compound CNc1ccc(C(=O)CC(O)CCC(C)C2OC(=O)CC(O)CC(=O)CC(O)CC(O)CC(O)CC(O)CC3(O)CC(O)C(C(=O)N4CCOCC4)C(CC(OC4OC(C)C(O)C(N)C4O)/C=C/C=C/C=C/C=C\C=C/C=C/C=C/C2C)O3)cc1 (stereo not drawn) has a TGI (786-0 renal) greater than 100 µM, a TGI (MOLT-4 leukemia) greater than 100 µM and a TGI (NCI-H522 lung) of 0.55 µM. For the same compound, the TGI (KM12 colon) was 0.747 µM, the TGI (COLO 205 colon) was greater than 100 µM and the TGI (SK-MEL-2 melanoma) was 8.55 µM. It also gave a TGI (K-562 leukemia) greater than 100 µM, a TGI (OVCAR-5 ovarian) greater than 100 µM and a TGI (NCI-H226 lung) of 0.553 µM. The TGI (HCT-116 colon) was greater than 100 µM, the TGI (HL-60(TB) leukemia) was greater than 100 µM and the TGI (RXF 393 renal) was 0.637 µM. It also gave a TGI (A549 NSCLC) greater than 100 µM, a TGI (SW-620 colon) greater than 100 µM and a TGI (DU-145 prostate) of 3.31 µM. It also gave a TGI (MALME-3M melanoma) of 0.4 µM, a TGI (OVCAR-8 ovarian) greater than 100 µM and a TGI (UACC-257 melanoma) of 0.384 µM. The TGI (SK-OV-3 ovarian) was greater than 100 µM, the TGI (SK-MEL-5 melanoma) was 0.462 µM and the TGI (MDA-MB-435) was 0.798 µM.

Cn1cc(-c2nc(-c3c[nH]c4ccncc34)cs2)c2cc(Br)ccc21 gave a GI50 (SNB-75 CNS) of 1.23 µM, a TGI (SNB-75 CNS) of 2.54 µM and a GI50 (SK-MEL-2 melanoma) of 2 µM. It also gave a TGI (SK-MEL-2 melanoma) of 3.62 µM, a GI50 (OVCAR-5 ovarian) of 1.81 µM and a TGI (OVCAR-5 ovarian) of 3.27 µM. For the same compound, the GI50 (MDA-MB-231 breast) was 1.41 µM, the TGI (MDA-MB-231 breast) was 2.84 µM and the GI50 (DU-145 prostate) was 1.82 µM. For the same compound, the TGI (DU-145 prostate) was 3.28 µM, the GI50 (UACC-257 melanoma) was 1.99 µM and the TGI (UACC-257 melanoma) was 3.52 µM. For the same compound, the GI50 (SK-MEL-5 melanoma) was 1.6 µM and the TGI (SK-MEL-5 melanoma) was 2.95 µM.

COc1cc2c(cc1C)NC(=O)/C2=C/c1ccccn1 was tested, and the GI50 (786-0 renal) was 2.48 µM, the TGI (786-0 renal) was 8.38 µM and the GI50 (MOLT-4 leukemia) was 4.28 µM. It also gave a TGI (MOLT-4 leukemia) greater than 100 µM, a GI50 (T-47D breast) of 19.3 µM and a TGI (T-47D breast) greater than 100 µM. The GI50 (NCI-H522 lung) was 3.37 µM, the TGI (NCI-H522 lung) was greater than 100 µM and the GI50 (RPMI-8226 leukemia) was 3.93 µM. For the same compound, the TGI (RPMI-8226 leukemia) was greater than 100 µM, the GI50 (SF-539 CNS) was 0.024 µM and the TGI (SF-539 CNS) was 2.47 µM. It also gave a GI50 (COLO 205 colon) of 4.23 µM, a TGI (COLO 205 colon) greater than 100 µM and a GI50 (ACHN renal) of 2.48 µM. The TGI (ACHN renal) was 35.6 µM, the GI50 (SNB-75 CNS) was 8.52 µM and the TGI (SNB-75 CNS) was greater than 100 µM. The GI50 (MCF7 breast) was 3.27 µM, the TGI (MCF7 breast) was greater than 100 µM and the GI50 (SK-MEL-2 melanoma) was greater than 100 µM. The TGI (SK-MEL-2 melanoma) was greater than 100 µM, the GI50 (SF-268 CNS) was 3.28 µM and the TGI (SF-268 CNS) was 24.6 µM. It also gave a GI50 (UACC-62 melanoma) of 2.85 µM, a TGI (UACC-62 melanoma) of 13.9 µM and a GI50 (OVCAR-3 ovarian) of 2.61 µM. The TGI (OVCAR-3 ovarian) was 6.81 µM, the GI50 (K-562 leukemia) was 2.71 µM and the TGI (K-562 leukemia) was greater than 100 µM. The GI50 (HOP-92 NSCLC) was 2.9 µM, the TGI (HOP-92 NSCLC) was 89.4 µM and the GI50 (CAKI-1 renal) was 2.72 µM. For the same compound, the TGI (CAKI-1 renal) was 9.59 µM, the GI50 (OVCAR-5 ovarian) was 3.46 µM and the TGI (OVCAR-5 ovarian) was 43.9 µM. For the same compound, the GI50 (SN12C renal) was 4.01 µM, the TGI (SN12C renal) was 18.4 µM and the GI50 (PC-3 prostate) was 8.73 µM. For the same compound, the TGI (PC-3 prostate) was greater than 100 µM, the GI50 (NCI-H226 lung) was 1.54 µM and the TGI (NCI-H226 lung) was 4.86 µM. It also gave a GI50 (NCI-H23 lung) of 2.76 µM, a TGI (NCI-H23 lung) of 9.1 µM and a GI50 (HOP-62 NSCLC) of 4.24 µM. The TGI (HOP-62 NSCLC) was greater than 100 µM, the GI50 (LOX IMVI melanoma) was 3.25 µM and the TGI (LOX IMVI melanoma) was 10.4 µM. For the same compound, the GI50 (HT29 colon) was 5.47 µM, the TGI (HT29 colon) was greater than 100 µM and the GI50 (SF-295 CNS) was 3.46 µM. The TGI (SF-295 CNS) was 13.3 µM, the GI50 (A498 renal) was 3.61 µM and the TGI (A498 renal) was 8.25 µM. It also gave a GI50 (HCT-116 colon) of 2.53 µM, a TGI (HCT-116 colon) greater than 100 µM and a GI50 (CCRF-CEM leukemia) of 0.782 µM. The TGI (CCRF-CEM leukemia) was greater than 100 µM, the GI50 (SR leukemia) was 3.18 µM and the TGI (SR leukemia) was greater than 100 µM. The GI50 (HL-60(TB) leukemia) was 5.35 µM, the TGI (HL-60(TB) leukemia) was greater than 100 µM and the GI50 (IGROV1 ovarian) was 9.6 µM. It also gave a TGI (IGROV1 ovarian) greater than 100 µM, a GI50 (MDA-MB-231 breast) of 2.02 µM and a TGI (MDA-MB-231 breast) of 7.96 µM. The GI50 (A549 NSCLC) was 4.11 µM, the TGI (A549 NSCLC) was greater than 100 µM and the GI50 (NCI-H460 lung) was 3.56 µM. For the same compound, the TGI (NCI-H460 lung) was greater than 100 µM, the GI50 (OVCAR-4 ovarian) was 8.02 µM and the TGI (OVCAR-4 ovarian) was greater than 100 µM. For the same compound, the GI50 (SNB-19 CNS) was 4.07 µM, the TGI (SNB-19 CNS) was greater than 100 µM and the GI50 (SW-620 colon) was 6.91 µM. For the same compound, the TGI (SW-620 colon) was greater than 100 µM, the GI50 (NCI/ADR-RES ovarian) was 2.42 µM and the TGI (NCI/ADR-RES ovarian) was 6.27 µM. The GI50 (SK-MEL-28 melanoma) was 10.5 µM, the TGI (SK-MEL-28 melanoma) was greater than 100 µM and the GI50 (OVCAR-8 ovarian) was 3.14 µM. It also gave a TGI (OVCAR-8 ovarian) greater than 100 µM, a GI50 (M14 melanoma) of 3.8 µM and a TGI (M14 melanoma) greater than 100 µM. The GI50 (UACC-257 melanoma) was 13.1 µM, the TGI (UACC-257 melanoma) was greater than 100 µM and the GI50 (SK-OV-3 ovarian) was 3.41 µM. It also gave a TGI (SK-OV-3 ovarian) greater than 100 µM, a GI50 (EKVX NSCLC) of 0.0532 µM and a TGI (EKVX NSCLC) of 6.88 µM. It also gave a GI50 (SK-MEL-5 melanoma) of 4.49 µM, a TGI (SK-MEL-5 melanoma) of 27.3 µM and a GI50 (UO-31 renal) of 12.2 µM. It also gave a TGI (UO-31 renal) greater than 100 µM, a GI50 (U251 CNS) of 2.92 µM and a TGI (U251 CNS) greater than 100 µM. For the same compound, the GI50 (MDA-MB-435) was 3.77 µM and the TGI (MDA-MB-435) was greater than 100 µM.
